From US7655429B2, “Immunoassays for topiramate” (Seradyn, Inc., priority 2004, dated 2010)

Test system: anti-topiramate antibodies prepared with immunogen (17)
Assay: ELISA binding inhibition study (avidity), free topiramate versus coated antigen
Design: species or system Rabbit
Description: ELISA plates for use in an ELISA assay are prepared in order to study the polyclonal antibody prepared as described in Example 21. As such, various topiramate antigens (16), (19), and (20) are coated on different ELISA plates before being subjected to the anti-topiramate antibody and competing free topiramate. More particularly, the topiramate antigens are diluted in coating buffer, and then added to the wells of ELISA plate. After the ELISA plate is incubated for 60 min at 37° C., the solvent in the coating buffer is decanted and a blocking buffer is added to the plate. The plate is incubated again for 60 min at 37° C., and the solvent in the blocking buffer is decanted from the plate. The ELISA plate is then stored with the blocking agent in the wells at 2-8° C. for up to 1 week. The avidity of the anti-topiramate antibodies prepared with immunogen (17) for topiramate analogs are determined by a binding inhibition study. As such, samples are prepared in 1 mL of PBS at pH 7.4 with 0.1% BSA. A composition having 30% Bmax titer or 50% Bmax titer is used to divide the obtained titer value into approximately half the titer value. Using 30% Bmax, an antibody titer of 1:10,000 is diluted to 1:5,000 during the sample preparation stage. About 50 μL of topiramate at different concentrations or calibrator values, (0, 2, 4, 8, 16, 32 μg/ml) are then applied to a plate as prepared in accordance with Example 22. About 50 μL of the diluted antibody is dispensed into the plate, and the compositions in the plate are mixed for 1 min on a horizontal plate shaker. The plate is characterized by a first row not containing topiramate or anti-topiramate antibody, wherein the first row is used as a negative control. A second row not containing topiramate is used as the positive control. The plate is incubated for 60 min, and washed three times with 250 μL of PBS at pH 7.4 with 0.05% tween. About 125 μL of a diluted second antibody conjugate such as antigens (16), (19), or (20), in PBS at pH 7.4 is added to each well of the plate. Titer is determined experimentally by the plate being incubated for 60 min at 37° C. and washed 3 times with 250 μL PBS, pH 7.4 with 0.05% tween. Subsequently, about 125 μL of ABTS substrate is added to each well of the plate and incubated for 20 min.

[1] = Antigen 16, Topiramate 2 μg/ml, Rabbit No. 5481
[2] = Antigen 16, Topiramate 2 μg/ml, Rabbit No. 5492
[3] = Antigen 16, Topiramate 4 μg/ml, Rabbit No. 5481
[4] = Antigen 16, Topiramate 4 μg/ml, Rabbit No. 5492
[5] = Antigen 16, Topiramate 8 μg/ml, Rabbit No. 5481
[6] = Antigen 16, Topiramate 8 μg/ml, Rabbit No. 5492
[7] = Antigen 16, Topiramate 16 μg/ml, Rabbit No. 5481
[8] = Antigen 16, Topiramate 16 μg/ml, Rabbit No. 5492
[9] = Antigen 16, Topiramate 32 μg/ml, Rabbit No. 5481
[10] = Antigen 16, Topiramate 32 μg/ml, Rabbit No. 5492
[11] = Antigen 19, Topiramate 2 μg/ml, Rabbit No. 5481
[12] = Antigen 19, Topiramate 2 μg/ml, Rabbit No. 5492
[13] = Antigen 19, Topiramate 4 μg/ml, Rabbit No. 5481
[14] = Antigen 19, Topiramate 4 μg/ml, Rabbit No. 5492
[15] = Antigen 19, Topiramate 8 μg/ml, Rabbit No. 5481
[16] = Antigen 19, Topiramate 8 μg/ml, Rabbit No. 5492
[17] = Antigen 19, Topiramate 16 μg/ml, Rabbit No. 5481
[18] = Antigen 19, Topiramate 16 μg/ml, Rabbit No. 5492
[19] = Antigen 19, Topiramate 32 μg/ml, Rabbit No. 5481
[20] = Antigen 19, Topiramate 32 μg/ml, Rabbit No. 5492
[21] = Antigen 20, Topiramate 2 μg/ml, Rabbit No. 5481
[22] = Antigen 20, Topiramate 2 μg/ml, Rabbit No. 5492
[23] = Antigen 20, Topiramate 4 μg/ml, Rabbit No. 5481
[24] = Antigen 20, Topiramate 4 μg/ml, Rabbit No. 5492
[25] = Antigen 20, Topiramate 8 μg/ml, Rabbit No. 5481
[26] = Antigen 20, Topiramate 8 μg/ml, Rabbit No. 5492
[27] = Antigen 20, Topiramate 16 μg/ml, Rabbit No. 5481
[28] = Antigen 20, Topiramate 16 μg/ml, Rabbit No. 5492
[29] = Antigen 20, Topiramate 32 μg/ml, Rabbit No. 5481
[30] = Antigen 20, Topiramate 32 μg/ml, Rabbit No. 5492

CC1(C)O[C@@H]2[C@@H](CO[C@@]3(COS(N)(=O)=O)OC(C)(C)O[C@@H]23)O1 [Topiramate, 2,3:4,5-di-O-isopropylidene-beta-D-fructopyranose sulfamate]
Abs [1]: 0.29
B/Bo [1]: 0.38
Abs [2]: 0.25
B/Bo [2]: 0.56
Abs [3]: 0.26
B/Bo [3]: 0.34
Abs [4]: 0.20
B/Bo [4]: 0.44
Abs [5]: 0.18
B/Bo [5]: 0.24
Abs [6]: 0.15
B/Bo [6]: 0.33
Abs [7]: 0.15
B/Bo [7]: 0.20
Abs [8]: 0.13
B/Bo [8]: 0.29
Abs [9]: 0.11
B/Bo [9]: 0.14
Abs [10]: 0.01
B/Bo [10]: 0.02
Abs [11]: 0.33
B/Bo [11]: 0.40
Abs [12]: 0.31
B/Bo [12]: 0.38
Abs [13]: 0.25
B/Bo [13]: 0.30
Abs [14]: 0.23
B/Bo [14]: 0.28
Abs [15]: 0.20
B/Bo [15]: 0.24
Abs [16]: 0.19
B/Bo [16]: 0.23
Abs [17]: 0.18
B/Bo [17]: 0.22
Abs [18]: 0.17
B/Bo [18]: 0.20
Abs [19]: 0.15
B/Bo [19]: 0.18
Abs [20]: 0.15
B/Bo [20]: 0.18
Abs [21]: 0.32
B/Bo [21]: 0.53
Abs [22]: 0.45
B/Bo [22]: 0.64
Abs [23]: 0.30
B/Bo [23]: 0.50
Abs [24]: 0.41
B/Bo [24]: 0.59
Abs [25]: 0.25
B/Bo [25]: 0.42
Abs [26]: 0.38
B/Bo [26]: 0.54
Abs [27]: 0.22
B/Bo [27]: 0.37
Abs [28]: 0.38
B/Bo [28]: 0.54
Abs [29]: 0.18
B/Bo [29]: 0.30
Abs [30]: 0.28
B/Bo [30]: 0.40
